Experimental data published in ChEMBL document CHEMBL4308894, “Synthesis and evaluation of biological activity for dual-acting antibiotics on the basis of azithromycin and glycopeptides” (Bioorg Med Chem Lett, 2019).
In brackets after ≈: the same amount, converted by molar mass. Activity calls are given as the source filed them. The rule behind the calls is not given here.

Tests used:
[1] = test system: Escherichia coli; test: Induction of translation arrest in tolC-deficient Escherichia coli harboring pRFPCER-TrpL2A assessed as increase in pRFPCER-TrpL2A reporter activity at 10 mg/ml after overnight incubation by dual fluorescent-reporter gene assay; assay type: functional, organism-based
[2] = test system: Staphylococcus aureus; test: Antibacterial activity against Staphylococcus aureus isolate 10 infected in C57BL/6 mouse assessed as survival rate at 3.5 mg/kg, iv measured for 10 days (reference value: 0%); assay type: functional; settings: isolate 10, iv, 240 h
[3] = test system: Enterococcus gallinarum; test: Antibacterial activity against Streptococcus gallinarum ATCC 35038 by micro dilution method; assay type: functional
[4] = test system: Staphylococcus aureus; test: Antibacterial activity against Staphylococcus aureus ATCC 25923 by micro dilution method; assay type: functional
[5] = test system: Staphylococcus aureus; test: Antibacterial activity against Staphylococcus aureus isolate 10 infected in C57BL/6 mouse assessed as survival rate at 6.5 mg/kg, iv measured for 10 days (reference value: 0%); assay type: functional; settings: isolate 10, iv, 240 h
[6] = test system: Staphylococcus aureus; test: Antibacterial activity against Staphylococcus aureus isolate 10 infected in C57BL/6 mouse assessed as survival rate at 4.5 mg/kg, iv measured for 10 days (reference value: 0%); assay type: functional; settings: isolate 10, iv, 240 h
[7] = test system: Staphylococcus aureus; test: Antibacterial activity against Staphylococcus aureus isolate 3798 by micro dilution method; assay type: functional
[8] = test system: Enterococcus faecium; test: Antibacterial activity against Enterococcus faecium isolate 568 by micro dilution method; assay type: functional
[9] = test system: Staphylococcus aureus; test: Antibacterial activity against Staphylococcus aureus isolate 10 infected in iv dosed C57BL/6 mouse measured for 10 days; assay type: functional; settings: isolate 10, iv, 240 h
[10] = test system: Staphylococcus aureus; test: Antibacterial activity against Staphylococcus aureus isolate 10 infected in C57BL/6 mouse assessed as survival rate at 7.5 mg/kg, iv measured for 10 days (reference value: 0%); assay type: functional; settings: isolate 10, iv, 240 h
[11] = test system: Staphylococcus aureus; test: Antibacterial activity against Staphylococcus aureus isolate 10 infected in C57BL/6 mouse assessed as survival rate at 5.5 mg/kg, iv measured for 10 days (reference value: 0%); assay type: functional; settings: isolate 10, iv, 240 h
[12] = test system: Streptococcus pneumoniae; test: Antibacterial activity against Streptococcus pneumoniae ATCC 49619 by micro dilution method; assay type: functional
[13] = test system: Staphylococcus aureus; test: Antibacterial activity against Staphylococcus aureus isolate 1025 by micro dilution method; assay type: functional
[14] = test system: Escherichia coli; test: Antibacterial activity against Escherichia coli ATCC 25922 by micro dilution method; assay type: functional
[15] = test system: Streptococcus agalactiae; test: Antibacterial activity against Streptococcus agalactiae isolate 52 by micro dilution method; assay type: functional
[16] = test system: Enterococcus faecalis; test: Antibacterial activity against Enterococcus faecalis isolate 560 by micro dilution method; assay type: functional
[17] = test system: Salmonella typhimurium; test: Antibacterial activity against Salmonella choleraesuis ATCC 14028 by micro dilution method; assay type: functional, Salmonella enterica subsp. enterica serovar Typhimurium; settings: Salmonella enterica
[18] = test system: Enterococcus faecium; test: Antibacterial activity against Enterococcus faecium isolate 569 by micro dilution method; assay type: functional
[19] = test system: Staphylococcus aureus; test: Antibacterial activity against Staphylococcus aureus isolate 10 infected in C57BL/6 mouse assessed as survival rate at 2.5 mg/kg, iv measured for 10 days (reference value: 0%); assay type: functional; settings: isolate 10, iv, 240 h
[20] = test system: Klebsiella pneumoniae; test: Antibacterial activity against Klebsiella pneumoniae ATCC 13883 by micro dilution method; assay type: functional
[21] = test system: Staphylococcus aureus; test: Antibacterial activity against Staphylococcus aureus isolate 3797 by micro dilution method; assay type: functional
[22] = test system: Staphylococcus aureus; test: Antibacterial activity against Staphylococcus aureus isolate 10 by micro dilution method; assay type: functional
[23] = test system: Staphylococcus epidermidis; test: Antibacterial activity against Staphylococcus epidermidis isolate 533 by micro dilution method; assay type: functional
[24] = Half life in human serum; assay type: ADME, cell-free
[25] = Elimination half life in patient with normal creatinine clearance; assay type: ADME; settings: human, in vivo; read-out: beta t1/2

Structure (SMILES) | Activity [1] | MIC [3] [µg/mL] | MIC [4] [µg/mL] | MIC [7] [µg/mL] | MIC [8] [µg/mL] | MIC [12] [µg/mL] | MIC [13] [µg/mL] | MIC [14] [µg/mL] | MIC [15] [µg/mL] | MIC [16] [µg/mL] | MIC [17] [µg/mL] | MIC [18] [µg/mL] | MIC [20] [µg/mL] | MIC [21] [µg/mL] | MIC [22] [µg/mL] | MIC [23] [µg/mL] | also measured
CC[C@H]1OC(=O)[C@H](C)[C@@H](O[C@H]2C[C@@](C)(OC)[C@@H](O)[C@H](C)O2)[C@H](C)[C@@H](O[C@@H]2O[C@H](C)C[C@H](N(C)C)[C@H]2O)[C@](C)(O)C[C@@H](C)C(=O)[C@H](C)[C@@H](O)[C@]1(C)O | Active |  |  |  |  |  |  |  |  |  |  |  |  |  |  |  | 
CC[C@H]1OC(=O)[C@H](C)[C@@H](O[C@H]2C[C@@](C)(OC)[C@@H](OC(=O)NCCNC(=O)[C@H]3NC(=O)[C@H]4NC(=O)[C@H](NC(=O)[C@@H]5NC(=O)[C@H](CC(N)=O)NC(=O)[C@H](NC(=O)[C@@H](CC(C)C)NC)[C@H](O)c6ccc(c(Cl)c6)Oc6cc5cc(c6O[C@@H]5O[C@H](CO)[C@@H](O)[C@H](O)[C@H]5O[C@H]5C[C@](C)(N)[C@H](O)[C@H](C)O5)Oc5ccc(cc5Cl)[C@H]4O[C@H]4C[C@](C)(N)[C@@H](O)[C@H](C)O4)c4ccc(O)c(c4)-c4c(O)cc(O)cc43)[C@H](C)O2)[C@H](C)[C@@H](O[C@@H]2O[C@H](C)C[C@H](N(C)C)[C@H]2O)[C@](C)(O)C[C@@H](C)CN(C)[C@H](C)[C@H]2OC(=O)O[C@]21C | Active | 4 (≈ 1.64 µM) | 1 (≈ 0.411 µM) | 8 (≈ 3.28 µM) | 1 (≈ 0.411 µM) | 1 (≈ 0.411 µM) | 8 (≈ 3.28 µM) | > 32 | 8 (≈ 3.28 µM) | 16 (≈ 6.57 µM) | > 32 | 8 (≈ 3.28 µM) | > 32 | 4 (≈ 1.64 µM) | 0.06 (≈ 0.0246 µM) | 2 (≈ 0.821 µM) | survival at 3.5 mg/kg [2]: 20%; survival at 6.5 mg/kg [5]: 70%; survival at 4.5 mg/kg [6]: 40%; ED50 [9]: 4.7 mg/kg; survival at 7.5 mg/kg [10]: 80%; survival at 5.5 mg/kg [11]: 70%; survival at 2.5 mg/kg [19]: 30%
CC[C@H]1OC(=O)[C@H](C)[C@@H](O[C@H]2C[C@@](C)(OC)[C@@H](OC(=O)NCCNC(=O)[C@H]3NC(=O)[C@H]4NC(=O)[C@H](NC(=O)[C@@H]5NC(=O)C6NC(=O)[C@@H](Cc7ccc(c(Cl)c7)Oc7cc5cc(c7O)Oc5ccc(cc5Cl)[C@H]4O)NC(=O)[C@H](N)c4ccc(O)c(c4)Oc4cc(O)cc6c4)c4ccc(O)c(c4)-c4c(O)cc(O)cc43)[C@H](C)O2)[C@H](C)[C@@H](O[C@@H]2O[C@H](C)C[C@H](N(C)C)[C@H]2O)[C@](C)(O)C[C@@H](C)CN(C)[C@H](C)[C@H]2OC(=O)O[C@]21C | inactive | 2 (≈ 0.979 µM) | 1 (≈ 0.49 µM) | 32 (≈ 15.7 µM) | 0.13 (≈ 0.0637 µM) | 0.5 (≈ 0.245 µM) | > 32 | > 32 | 32 (≈ 15.7 µM) | 16 (≈ 7.84 µM) | > 32 | 8 (≈ 3.92 µM) | > 32 | 1 (≈ 0.49 µM) | 0.06 (≈ 0.0294 µM) | 0.5 (≈ 0.245 µM) | 
CC[C@H]1OC(=O)[C@H](C)[C@@H](O[C@H]2C[C@@](C)(OC)[C@@H](OC(=O)NCCCNC(=O)[C@H]3NC(=O)[C@H]4NC(=O)[C@H](NC(=O)[C@@H]5NC(=O)[C@H](CC(N)=O)NC(=O)[C@H](NC(=O)[C@@H](CC(C)C)NC)[C@H](O)c6ccc(c(Cl)c6)Oc6cc5cc(c6O[C@@H]5O[C@H](CO)[C@@H](O)[C@H](O)[C@H]5O[C@H]5C[C@](C)(N)[C@H](O)[C@H](C)O5)Oc5ccc(cc5Cl)[C@H]4O)c4ccc(O)c(c4)-c4c(O)cc(O)cc43)[C@H](C)O2)[C@H](C)[C@@H](O[C@@H]2O[C@H](C)C[C@H](N(C)C)[C@H]2O)[C@](C)(O)C[C@@H](C)CN(C)[C@H](C)[C@H]2OC(=O)O[C@]21C | inactive | 4 (≈ 1.73 µM) | 2 (≈ 0.867 µM) | > 32 | 1 (≈ 0.434 µM) | 1 (≈ 0.434 µM) | > 32 | > 32 | 32 (≈ 13.9 µM) | 32 (≈ 13.9 µM) | > 32 | > 32 | > 32 | 4 (≈ 1.73 µM) | 1 (≈ 0.434 µM) | 2 (≈ 0.867 µM) | 
CC[C@H]1OC(=O)[C@H](C)[C@@H](O[C@H]2C[C@@](C)(OC)[C@@H](OC(=O)NCCCNC(=O)[C@H]3NC(=O)[C@H]4NC(=O)[C@H](NC(=O)[C@@H]5NC(=O)[C@H](CC(N)=O)NC(=O)[C@H](NC(=O)[C@@H](CC(C)C)NC)[C@H](O)c6ccc(c(Cl)c6)Oc6cc5cc(c6O[C@@H]5O[C@H](CO)[C@@H](O)[C@H](O)[C@H]5O[C@H]5C[C@](C)(N)[C@H](O)[C@H](C)O5)Oc5ccc(cc5Cl)[C@H]4O[C@H]4C[C@](C)(N)[C@@H](O)[C@H](C)O4)c4ccc(O)c(c4)-c4c(O)cc(O)cc43)[C@H](C)O2)[C@H](C)[C@@H](O[C@@H]2O[C@H](C)C[C@H](N(C)C)[C@H]2O)[C@](C)(O)C[C@@H](C)CN(C)[C@H](C)[C@H]2OC(=O)O[C@]21C | inactive | 2 (≈ 0.816 µM) | 1 (≈ 0.408 µM) | 4 (≈ 1.63 µM) | 0.5 (≈ 0.204 µM) | 1 (≈ 0.408 µM) | 16 (≈ 6.53 µM) | > 32 | 4 (≈ 1.63 µM) | 8 (≈ 3.27 µM) | > 32 | 4 (≈ 1.63 µM) | > 32 | 4 (≈ 1.63 µM) | 0.06 (≈ 0.0245 µM) | 1 (≈ 0.408 µM) | 
CC[C@H]1OC(=O)[C@H](C)[C@@H](O[C@H]2C[C@@](C)(OC)[C@@H](O)[C@H](C)O2)[C@H](C)[C@@H](O[C@@H]2O[C@H](C)C[C@H](N(C)C)[C@H]2O)[C@](C)(O)C[C@@H](C)CN(C)[C@H](C)[C@@H](O)[C@]1(C)O [AZITHROMYCIN] | Active | 4 (≈ 5.34 µM) | 1 (≈ 1.34 µM) | > 32 | 8 (≈ 10.7 µM) | 8 (≈ 10.7 µM) | 16 (≈ 21.4 µM) | 8 (≈ 10.7 µM) | > 32 | > 32 | 16 (≈ 21.4 µM) | 8 (≈ 10.7 µM) | 16 (≈ 21.4 µM) | > 32 | 1 (≈ 1.34 µM) | 2 (≈ 2.67 µM) | half-life [24]: 68 h
CC[C@H]1OC(=O)[C@H](C)[C@@H](O[C@H]2C[C@@](C)(OC)[C@@H](OC(=O)NCCNC(=O)[C@H]3NC(=O)[C@H]4NC(=O)[C@H](NC(=O)[C@@H]5NC(=O)[C@H](CC(N)=O)NC(=O)[C@H](NC(=O)[C@@H](CC(C)C)NC)[C@H](O)c6ccc(c(Cl)c6)Oc6cc5cc(c6O[C@@H]5O[C@H](CO)[C@@H](O)[C@H](O)[C@H]5O[C@H]5C[C@](C)(N)[C@H](O)[C@H](C)O5)Oc5ccc(cc5Cl)[C@H]4O)c4ccc(O)c(c4)-c4c(O)cc(O)cc43)[C@H](C)O2)[C@H](C)[C@@H](O[C@@H]2O[C@H](C)C[C@H](N(C)C)[C@H]2O)[C@](C)(O)C[C@@H](C)CN(C)[C@H](C)[C@H]2OC(=O)O[C@]21C | Active | 4 (≈ 1.74 µM) | 1 (≈ 0.436 µM) | > 32 | 1 (≈ 0.436 µM) | 1 (≈ 0.436 µM) | > 32 | > 32 | 32 (≈ 14 µM) | 32 (≈ 14 µM) | > 32 | > 32 | > 32 | 4 (≈ 1.74 µM) | 1 (≈ 0.436 µM) | 1 (≈ 0.436 µM) | 
CN[C@H](CC(C)C)C(=O)N[C@H]1C(=O)N[C@@H](CC(N)=O)C(=O)N[C@H]2C(=O)N[C@H]3C(=O)N[C@H](C(=O)N[C@H](C(=O)O)c4cc(O)cc(O)c4-c4cc3ccc4O)[C@H](O)c3ccc(c(Cl)c3)Oc3cc2cc(c3O[C@@H]2O[C@H](CO)[C@@H](O)[C@H](O)[C@H]2O[C@H]2C[C@](C)(N)[C@H](O)[C@H](C)O2)Oc2ccc(cc2Cl)[C@H]1O [VANCOMYCIN] |  | 4 (≈ 2.76 µM) |  | 8 (≈ 5.52 µM) |  | 2 (≈ 1.38 µM) | 8 (≈ 5.52 µM) | > 32 | 8 (≈ 5.52 µM) | > 32 | > 32 | > 32 | > 32 |  | 0.25 (≈ 0.173 µM) | 0.5 (≈ 0.345 µM) | survival at 3.5 mg/kg [2]: 40%; survival at 6.5 mg/kg [5]: 90%; survival at 4.5 mg/kg [6]: 50%; ED50 [9]: 4.2 mg/kg; survival at 7.5 mg/kg [10]: 100%; survival at 5.5 mg/kg [11]: 70%; half-life [25]: 6 to 12 h; survival at 2.5 mg/kg [19]: 30%
